“Also recorded” adds a separate entry of the source. Where a name gives a salt, the structure may show the parent alone.
Legend:
Format in all cases: physicochemical
[1] = Solubility in acetonitrile (50 mg added to 1 mL with stirring); conditions: for solubility observation (in words): 24° C. / room temperature (20-25° C.)
Description: (§1) Dabigatran etexilate mesylate, Form I, 50 mg, was added to acetonitrile (1 mL) with stirring, at 24° C. The product was not soluble under these conditions. The mixture was stirred for 48 hours, filtered and analysed to be Form A of dabigatran etexilate mesylate as determined by powder XRD.
(§2) The solubility of the amorphous form is therefore >50 mg/mL. After approximately 5 minutes a solid crystallized. The mixture was stirred for 48 hours, filtered and analysed to be Form A of dabigatran etexilate mesylate as determined by powder XRD.
(§3) Dabigatran etexilate mesylate, Form A, 50 mg, was added to acetonitrile (1 mL) with stirring, at 24° C. The product was not soluble under these conditions. The mixture was stirred for 48 hours, filtered and analysed to be Form A of dabigatran etexilate mesylate as determined by powder XRD.

[2] = Stability assay: slurrying in acetonitrile, solid form by powder XRD; conditions: acetonitrile 1 mL, 50 mg, 24° C. (room temperature), stirred 48 hours
Description: (§4) Powder diffraction patterns were acquired using a PANalytical, X'Pert diffractometer using CuKalpha-radiation. The system was configured in theta-theta, transmission geometry equipped with a focusing X-ray mirror and PIXcel detector.
as §1, §2, §3

[3] = Solvent mediated transformation of mixtures of forms in 2-propanol, solid form by powder XRD; conditions: 2-propanol 0.6 mL, ambient temperature, orbital agitator
Description: as §4
(§5) Dabigatran etexilate mesylate, a mixture of Form I, 17 mg and Form A, 15 mg, was suspended in 2-propanol (0.6 mL) and the mixture agitated at ambient temperature using an orbital agitator for 64 hours. The mixture was filtered, dried under vacuum and analysed to be purely Form A of dabigatran etexilate mesylate as determined by powder XRD.
as §5, with “II, 10” for “I, 17”, “7 days.” for “64 hours.”

SMILES | solubility observation (in words) ([1]; 50 mg in 1 mL acetonitrile) | solid form after slurrying (powder XRD) [2] | also measured
CCCCCCOC(=O)NC(=N)c1ccc(NCc2nc3cc(C(=O)N(CCC(=O)OCC)c4ccccn4)ccc3n2C)cc1 [amorphous dabigatran etexilate mesylate, dabigatran etexilate mesylate] | complete dissolution almost immediately; also recorded: completely dissolved | Form A | time until a solid crystallized from the acetonitrile solution ([1]; 50 mg in 1 mL acetonitrile, 24° C., after complete dissolution): approximately 5 minutes; solubility ([1]; organic solvent or mixture, thermodynamic from solid, acetonitrile, 24° C., 50 mg in 1 mL): > 50 mg/mL
CCCCCCOC(=O)NC(=N)c1ccc(NCc2nc3cc(C(=O)N(CCC(=O)OCC)c4ccccn4)ccc3n2C)cc1 [dabigatran etexilate mesylate Form A, dabigatran etexilate mesylate] | not soluble; also recorded: at least partly insoluble | Form A; also recorded: stable | –
CCCCCCOC(=O)NC(=N)c1ccc(NCc2nc3cc(C(=O)N(CCC(=O)OCC)c4ccccn4)ccc3n2C)cc1 [dabigatran etexilate mesylate Form I, dabigatran etexilate mesylate] | not soluble; also recorded: at least partly insoluble | converted entirely into Form A | –
CCCCCCOC(=O)/N=C(\N)c1ccc(NCc2nc3cc(C(=O)N(CCC(=O)OCC)c4ccccn4)ccc3n2C)cc1 [mixture of Form I and Form A, dabigatran etexilate mesylate] | – | – | solid form after slurrying mixture of forms (powder XRD) ([3]; 64 hours): purely Form A; also recorded: converted entirely into Form A
CCCCCCOC(=O)/N=C(\N)c1ccc(NCc2nc3cc(C(=O)N(CCC(=O)OCC)c4ccccn4)ccc3n2C)cc1 [mixture of Form II and Form A, dabigatran etexilate mesylate] | – | – | solid form after slurrying mixture of forms (powder XRD) ([3]; 7 days): purely Form A; also recorded: converted entirely into Form A

Source: patent US9073899B2, “Solid forms of dabigatran etexilate mesylate and processes for their preparation” (ESTEVE QUÍMICA, S.A., priority 2012, dated 2015)
